Data: the NIST ThermoML archive (doi:10.1016/j.jct.2009.04.015)
“And” between values parts separate entries of the source, which are not always exact repeats. Equal values may be shown once. Numbers after ± are expanded uncertainties.

Details: Crystal, Calculated from knudsen effusion weight loss

Cc1cc(O)ccc1O [1,4-benzenediol, 2-methyl-]
vapor or sublimation pressure (325.21 K): 0.000147 ± 7e-06 kPa and 0.000144 ± 7e-06 kPa and 0.000138 ± 7e-06 kPa
vapor or sublimation pressure (327.15 K): 0.000189 ± 1e-05 kPa and 0.000182 ± 9e-06 kPa and 0.000173 ± 9e-06 kPa
vapor or sublimation pressure (329.11 K): 0.000239 ± 1.2e-05 kPa and 0.000229 ± 1.2e-05 kPa and 0.000226 ± 1.1e-05 kPa
vapor or sublimation pressure (331.19 K): 0.000292 ± 1.5e-05 kPa and 0.000277 ± 1.4e-05 kPa and 0.000298 ± 1.5e-05 kPa
vapor or sublimation pressure (333.14 K): 0.000375 ± 1.9e-05 kPa and 0.000361 ± 1.8e-05 kPa and 0.000348 ± 1.7e-05 kPa
vapor or sublimation pressure (335.11 K): 0.000481 ± 2.4e-05 kPa and 0.000462 ± 2.3e-05 kPa and 0.000448 ± 2.2e-05 kPa
vapor or sublimation pressure (337.2 K): 0.00061 ± 3.1e-05 kPa and 0.000607 ± 3e-05 kPa and 0.000569 ± 2.9e-05 kPa
vapor or sublimation pressure (339.14 K): 0.000751 ± 3.8e-05 kPa and 0.000731 ± 3.7e-05 kPa and 0.000704 ± 3.5e-05 kPa
vapor or sublimation pressure (341.12 K): 0.000957 ± 4.8e-05 kPa and 0.000916 ± 4.6e-05 kPa and 0.00089 ± 4.5e-05 kPa

Cc1ccc(O)cc1O [1,3-benzenediol, 4-methyl-]
vapor or sublimation pressure (317.2 K): 0.000134 ± 7e-06 kPa and 0.000129 ± 7e-06 kPa and 0.000128 ± 6e-06 kPa
vapor or sublimation pressure (319.22 K): 0.000175 ± 9e-06 kPa and 0.00017 ± 9e-06 kPa and 0.000166 ± 8e-06 kPa
vapor or sublimation pressure (321.11 K): 0.00022 ± 1.1e-05 kPa and 0.000215 ± 1.1e-05 kPa and 0.000211 ± 1.1e-05 kPa
vapor or sublimation pressure (323.21 K): 0.000266 ± 1.3e-05 kPa and 0.000262 ± 1.3e-05 kPa and 0.000282 ± 1.4e-05 kPa
vapor or sublimation pressure (325.23 K): 0.000361 ± 1.8e-05 kPa and 0.000344 ± 1.7e-05 kPa and 0.000336 ± 1.7e-05 kPa
vapor or sublimation pressure (327.13 K): 0.000451 ± 2.3e-05 kPa and 0.000438 ± 2.2e-05 kPa and 0.000432 ± 2.2e-05 kPa
vapor or sublimation pressure (329.21 K): 0.000572 ± 2.9e-05 kPa and 0.000562 ± 2.8e-05 kPa and 0.000561 ± 2.8e-05 kPa
vapor or sublimation pressure (331.21 K): 0.000742 ± 3.7e-05 kPa and 0.000724 ± 3.6e-05 kPa and 0.000719 ± 3.6e-05 kPa
vapor or sublimation pressure (333.12 K): 0.000933 ± 4.7e-05 kPa and 0.000916 ± 4.6e-05 kPa and 0.000886 ± 4.4e-05 kPa

Cc1c(O)cccc1O [1,3-dihydroxy-2-methylbenzene]
vapor or sublimation pressure (309.22 K): 0.000109 ± 6e-06 kPa and 0.000107 ± 5e-06 kPa and 0.000103 ± 5e-06 kPa
vapor or sublimation pressure (311.2 K): 0.000141 ± 7e-06 kPa and 0.000136 ± 7e-06 kPa and 0.000132 ± 7e-06 kPa
vapor or sublimation pressure (313.12 K): 0.000176 ± 9e-06 kPa and 0.000172 ± 9e-06 kPa and 0.000171 ± 9e-06 kPa
vapor or sublimation pressure (315.21 K): 0.000224 ± 1.1e-05 kPa and 0.000217 ± 1.1e-05 kPa and 0.000227 ± 1.1e-05 kPa
vapor or sublimation pressure (317.12 K): 0.000287 ± 1.4e-05 kPa and 0.00028 ± 1.4e-05 kPa and 0.000276 ± 1.4e-05 kPa
vapor or sublimation pressure (319.2 K): 0.000358 ± 1.8e-05 kPa and 0.00035 ± 1.8e-05 kPa and 0.000341 ± 1.7e-05 kPa
vapor or sublimation pressure (321.19 K): 0.000456 ± 2.3e-05 kPa and 0.000446 ± 2.2e-05 kPa and 0.000437 ± 2.2e-05 kPa
vapor or sublimation pressure (323.12 K): 0.000578 ± 2.9e-05 kPa and 0.000559 ± 2.8e-05 kPa and 0.000553 ± 2.8e-05 kPa
vapor or sublimation pressure (325.21 K): 0.000724 ± 3.6e-05 kPa and 0.000694 ± 3.5e-05 kPa and 0.000673 ± 3.4e-05 kPa
vapor or sublimation pressure (327.17 K): 0.000896 ± 4.5e-05 kPa and 0.000883 ± 4.4e-05 kPa and 0.000851 ± 4.3e-05 kPa
vapor or sublimation pressure (329.11 K): 0.001115 ± 0.00011 kPa and 0.001099 ± 0.00011 kPa and 0.001081 ± 0.00011 kPa

Cc1cc(O)cc(O)c1 [5-methyl-1,3-benzenediol]
vapor or sublimation pressure (322.2 K): 0.000157 ± 8e-06 kPa and 0.000153 ± 8e-06 kPa
vapor or sublimation pressure (324.16 K): 0.000199 ± 1e-05 kPa and 0.000196 ± 1e-05 kPa and 0.000193 ± 1e-05 kPa
vapor or sublimation pressure (326.1 K): 0.000246 ± 1.2e-05 kPa and 0.000245 ± 1.2e-05 kPa
vapor or sublimation pressure (328.2 K): 0.000304 ± 1.5e-05 kPa and 0.000311 ± 1.6e-05 kPa and 0.000303 ± 1.5e-05 kPa
vapor or sublimation pressure (330.14 K): 0.000394 ± 2e-05 kPa and 0.000383 ± 1.9e-05 kPa and 0.000378 ± 1.9e-05 kPa
vapor or sublimation pressure (332.1 K): 0.000499 ± 2.5e-05 kPa and 0.000485 ± 2.4e-05 kPa and 0.000482 ± 2.4e-05 kPa
vapor or sublimation pressure (334.19 K): 0.000607 ± 3e-05 kPa and 0.000596 ± 3e-05 kPa and 0.000591 ± 3e-05 kPa
vapor or sublimation pressure (336.13 K): 0.000766 ± 3.8e-05 kPa and 0.000754 ± 3.8e-05 kPa and 0.000734 ± 3.7e-05 kPa
vapor or sublimation pressure (338.1 K): 0.000974 ± 4.9e-05 kPa and 0.000935 ± 4.7e-05 kPa and 0.000932 ± 4.7e-05 kPa
